The results in this text go back to ChEMBL document CHEMBL1145438, “Synthesis and matrix metalloproteinase (MMP)-12 inhibitory activity of ageladine A and its analogs” (Bioorg Med Chem Lett, 2007).

In this experiment the target is Macrophage metalloelastase (Homo sapiens, UniProt P39900). In words: Inhibition of MMP12.

The IC50 is the midpoint of a concentration-inhibition curve. The low end stands for inhibition by little substance, the high end for a need for much substance.

Chain of Macrophage metalloelastase (P39900 whole entry): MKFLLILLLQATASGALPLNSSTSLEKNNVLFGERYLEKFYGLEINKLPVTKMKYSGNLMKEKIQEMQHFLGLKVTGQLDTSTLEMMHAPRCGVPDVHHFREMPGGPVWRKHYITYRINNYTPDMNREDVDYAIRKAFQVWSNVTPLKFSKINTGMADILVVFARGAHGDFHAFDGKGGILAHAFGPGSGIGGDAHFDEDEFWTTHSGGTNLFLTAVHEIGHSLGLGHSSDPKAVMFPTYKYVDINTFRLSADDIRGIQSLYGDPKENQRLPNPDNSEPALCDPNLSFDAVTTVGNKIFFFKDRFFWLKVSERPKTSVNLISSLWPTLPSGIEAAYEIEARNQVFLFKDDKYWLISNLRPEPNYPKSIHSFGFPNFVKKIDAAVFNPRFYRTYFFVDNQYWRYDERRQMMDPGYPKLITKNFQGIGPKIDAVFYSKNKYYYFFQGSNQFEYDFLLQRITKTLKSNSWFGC

`CNc1nc2c(-c3cc(Br)c(Br)[nH]3)nccc2n1C` yielded a 50% inhibitory concentration (IC50) of over 100 µM.

Regarding `Nc1nc2c(-c3cc(Br)c[nH]3)nccc2[nH]1`, the half-inhibitory concentration (IC50) was over 100 µM.

The compound `Nc1nc2c(-c3ccc[nH]3)nccc2[nH]1` came in with an IC50 of over 100 µM.

In the case of `Nc1nc2c(-c3cc(Br)c(Br)[nH]3)nccc2[nH]1` [AGELADINE A], the IC50 turned out to be 3.66 µM.

As to `Brc1cc(-c2nccc3[nH]cnc23)[nH]c1Br`, the IC50 is 43.6 µM.

As to `Cn1c(N)nc2c(-c3cc(Br)c(Br)[nH]3)nccc21`, the IC50 is 56.9 µM.

Compound `CN(C)c1nc2c(-c3cc(Br)c(Br)[nH]3)nccc2[nH]1` returned a half-inhibitory concentration (IC50) of over 100 µM.

On to `Nc1nc2c(-c3ccc(Br)[nH]3)nccc2[nH]1`, for which the half-maximal inhibitory concentration (IC50) was over 100 µM.

Compound `Cn1c(-c2nccc3[nH]c(N)nc23)cc(Br)c1Br` returned a half-inhibitory concentration (IC50) of over 100 µM.

The compound `CNc1nc2c(-c3cc(Br)c(Br)[nH]3)nccc2[nH]1` came in with an IC50 of 10.4 µM.
